# According to paper PMC6811774, “Potent, selective, and subunit‐dependent activation of TRPC5 channels by a xanthine derivative” (British Journal of Pharmacology, 2019):
# pEC50: −log10 of the molar value. “And” between values parts separate entries of the source, which are not always exact repeats. Equal values may be shown once. Read-outs that look alike come from different tables or passages of the source.
# Key:
# [1] = target: T1, TRPC5:C5 channels (hTRPC5) (Homo sapiens, UniProt Q9UL62); test: [Ca2+]i measurement (Fura-2, FlexStation) in (Tet+) HEK T-REx cells expressing hTRPC5; format: cell-based
# T1 construct: expressed in transfected cells
# T1 sequence (Q9UL62 1-973): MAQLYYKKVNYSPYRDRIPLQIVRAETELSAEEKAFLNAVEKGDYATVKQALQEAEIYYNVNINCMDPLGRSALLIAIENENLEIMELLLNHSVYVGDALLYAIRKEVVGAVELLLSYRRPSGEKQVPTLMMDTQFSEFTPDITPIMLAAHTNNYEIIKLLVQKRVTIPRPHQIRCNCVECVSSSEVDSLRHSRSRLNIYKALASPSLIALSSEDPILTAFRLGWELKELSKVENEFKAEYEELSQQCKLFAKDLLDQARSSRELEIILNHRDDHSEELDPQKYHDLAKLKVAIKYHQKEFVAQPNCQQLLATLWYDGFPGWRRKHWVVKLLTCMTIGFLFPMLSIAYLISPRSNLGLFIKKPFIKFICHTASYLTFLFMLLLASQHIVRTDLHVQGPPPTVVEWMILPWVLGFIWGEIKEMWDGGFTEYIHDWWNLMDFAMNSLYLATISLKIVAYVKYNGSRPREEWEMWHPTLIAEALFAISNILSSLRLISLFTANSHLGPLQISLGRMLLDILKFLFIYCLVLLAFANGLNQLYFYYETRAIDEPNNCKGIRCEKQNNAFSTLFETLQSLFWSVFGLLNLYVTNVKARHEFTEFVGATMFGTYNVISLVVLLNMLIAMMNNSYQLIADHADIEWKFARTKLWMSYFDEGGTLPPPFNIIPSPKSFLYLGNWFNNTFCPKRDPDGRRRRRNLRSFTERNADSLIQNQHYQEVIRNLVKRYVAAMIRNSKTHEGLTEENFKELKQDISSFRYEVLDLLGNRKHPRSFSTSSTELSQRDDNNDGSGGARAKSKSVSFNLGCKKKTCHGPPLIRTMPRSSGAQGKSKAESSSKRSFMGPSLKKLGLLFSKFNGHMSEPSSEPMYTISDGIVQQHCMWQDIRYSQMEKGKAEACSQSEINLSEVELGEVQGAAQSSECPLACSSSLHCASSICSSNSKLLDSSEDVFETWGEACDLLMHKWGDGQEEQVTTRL
# Method: HEK T‐REx™ cell line was transfected with TRPC5‐SYFP2 or TRPC4‐SYFP2 using FuGENE® HD transfection reagent. After 48 hr, cells were put under antibiotic selection using 400 μg·ml^−1 zeocin and 10 μg·ml^−1 blasticidin S (Invivogen, San Diego, California, USA). Medium changes were carried out regularly to remove dead cells. HEK T‐REx cells expressing tetracycline‐inducible human TRPC5, TRPC4–C1, and TRPC5–C1 were created as described previously (Akbulut et al., 2015; Ludlow et al., 2017; Rubaiy, Ludlow, Henrot, et al., 2017). TRPC5–C1 and TRPC4–C1 concatemers allow expression of functional channels with defined 2:2 stoichiometry that display ion permeability and current–voltage relationships distinct from those of homomeric TRPC4:C4 or TRPC5:C5 channels and consistent with those obtained upon co‐expression of TRPC1 with TRPC4 or TRPC5 (Ludlow et al., 2017; Rubaiy, Ludlow, Bon, & Beech, 2017; Rubaiy, Ludlow, Henrot, et al., 2017). Cells were cultured in DMEM‐F12 GlutaMAX (Invitrogen, Paisley, UK) containing 10% FBS (Sigma‐Aldrich, Gillingham, UK), with the addition of blasticidin (10 μg·ml^−1) and zeocin (400 μg·ml^−1) to maintain the stable incorporation of the tetracycline repressor and the channel of interest, respectively. Expression of proteins was induced by the addition of tetracycline (1 μg·ml^−1, 24 hr). Cells were maintained in a humidified incubator with 5% CO2 at 37°C. HEK 293 cells stably expressing tetracycline‐regulated human http://www.guidetopharmacology.org/GRAC/ObjectDisplayForward?objectId=494 were prepared similarly and have also been described previously (McHugh, Flemming, Xu, Perraud, & Beech, 2003). For experiments using transient co‐expression of TRPC1 and TRPC5, HEK cells at 40–60% confluency were transfected with pIRES2‐AcGFP1 and pIRES2‐DsRed‐Express2 plasmids containing human TRPC1 and TRPC5, respectively, using Lipofectamine 3000 (ThermoFisher Scientific, Yokohama, Japan). All experiments using transient expression were performed within 48 hr after transfection. A498 cells were cultured in Minimum Essential Medium containing Earle's salts (ThermoFisher Scientific, Loughborough, UK), supplemented with 10% FBS and penicillin–streptomycin (100 units per ml^−1, 100 μg·ml^−1; ThermoFisher Scientific, Loughborough, UK). CHO cells stably expressing http://www.guidetopharmacology.org/GRAC/ObjectDisplayForward?objectId=510 were maintained in Ham's Nutrient Mixture F12 (ThermoFisher Scientific, Loughborough, UK) supplemented with 10% FBS, penicillin–streptomycin, and 1 mg·ml^−1 G418 (InvivoGen, San Diego, California, USA). For experiments using hTRPC3 and hTRPC6, WT HEK 293 cells were transfected with hTRPC3 (Naylor et al., 2016) or hTRPC6 (cloned into pcDNA3) using jetPRIME® transfection reagent (VWR, Lutterworth, UK). […]
# [2] = target: T2, TRPM2 (Homo sapiens, UniProt O94759); test: [Ca2+]i selectivity assay, (Tet+) HEK T-REx cells expressing TRPM2, H2O2 activation; format: cell-based; settings: 300 nM AM237; 1 mM H2O2
# T2 construct: expressed in transfected cells
# T2 sequence (O94759 whole entry): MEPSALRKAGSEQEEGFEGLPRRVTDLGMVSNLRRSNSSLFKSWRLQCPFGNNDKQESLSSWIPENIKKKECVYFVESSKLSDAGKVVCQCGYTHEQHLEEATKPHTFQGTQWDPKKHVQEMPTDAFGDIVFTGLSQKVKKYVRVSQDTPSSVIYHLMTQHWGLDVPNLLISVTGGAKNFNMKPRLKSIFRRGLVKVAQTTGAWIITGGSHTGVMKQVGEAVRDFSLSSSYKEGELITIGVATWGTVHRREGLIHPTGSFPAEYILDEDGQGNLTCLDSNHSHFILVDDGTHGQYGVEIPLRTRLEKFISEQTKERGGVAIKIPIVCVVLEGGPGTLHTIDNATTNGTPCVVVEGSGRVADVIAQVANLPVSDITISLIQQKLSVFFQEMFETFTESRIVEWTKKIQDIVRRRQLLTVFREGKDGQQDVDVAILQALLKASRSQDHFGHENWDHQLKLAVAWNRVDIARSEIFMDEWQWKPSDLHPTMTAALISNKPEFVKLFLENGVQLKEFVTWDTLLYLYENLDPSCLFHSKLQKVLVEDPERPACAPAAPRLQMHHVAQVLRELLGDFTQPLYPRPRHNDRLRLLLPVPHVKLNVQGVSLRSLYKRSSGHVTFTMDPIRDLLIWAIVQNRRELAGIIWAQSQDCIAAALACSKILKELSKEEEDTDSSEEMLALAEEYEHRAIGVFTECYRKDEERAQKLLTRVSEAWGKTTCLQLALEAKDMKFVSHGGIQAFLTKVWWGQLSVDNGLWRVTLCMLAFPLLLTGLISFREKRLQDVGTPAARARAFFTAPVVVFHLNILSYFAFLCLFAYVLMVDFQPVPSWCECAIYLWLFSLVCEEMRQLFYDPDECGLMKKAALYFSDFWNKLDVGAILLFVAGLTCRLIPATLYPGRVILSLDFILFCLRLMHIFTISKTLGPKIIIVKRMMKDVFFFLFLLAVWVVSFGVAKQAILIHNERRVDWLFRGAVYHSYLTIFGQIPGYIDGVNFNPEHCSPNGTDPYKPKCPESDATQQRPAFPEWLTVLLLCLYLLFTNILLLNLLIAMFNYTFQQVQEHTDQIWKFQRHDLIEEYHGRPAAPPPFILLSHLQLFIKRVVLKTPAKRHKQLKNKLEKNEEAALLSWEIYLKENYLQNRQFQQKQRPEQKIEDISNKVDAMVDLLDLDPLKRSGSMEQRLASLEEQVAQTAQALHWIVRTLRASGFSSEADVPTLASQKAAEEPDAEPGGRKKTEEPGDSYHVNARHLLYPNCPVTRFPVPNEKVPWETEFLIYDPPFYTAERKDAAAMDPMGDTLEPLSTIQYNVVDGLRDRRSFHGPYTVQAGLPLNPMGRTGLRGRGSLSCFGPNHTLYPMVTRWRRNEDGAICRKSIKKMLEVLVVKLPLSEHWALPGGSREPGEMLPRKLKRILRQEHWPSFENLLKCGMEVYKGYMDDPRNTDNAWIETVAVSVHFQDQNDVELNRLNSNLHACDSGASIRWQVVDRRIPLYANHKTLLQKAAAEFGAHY
smiles,measurement,setting,value
Cn1c(=O)n(CCCO)c(=O)c2c1nc(Oc1ccc(Cl)c(OC(F)(F)F)c1)n2Cc1ccc(Cl)cc1 [AM237],Concentration leading to a sustained increase in [Ca2+]i,[1]; cells overexpressing TRPC5 or TRPC5-SYFP2,≥ 3 nM
same,pEC50,"[1]; hTRPC5, response at 250–295 s vs baseline, read-out: EC50, activation (increase in [Ca2+]i)",7.70
same,"Hill slope, activation",[1]; hTRPC5 concentration–response curve,1.7
same,pEC50,"[1]; range over TRPC5 and TRPC5-SYFP2 experiments, read-out: EC50, TRPC5:C5 activation in [Ca2+]i assay (summary range)",7.70 to 7.82 and 7.70 to 8.00
same,Activation or inhibition of TRPM2,[2],no activation or inhibition
